Measurements from patent publication US8551988B2, “Benzimidazole derivatives: preparation and pharmaceutical applications” (Mei Pharma, Inc., priority 2003, dated 2013).
Read-outs that look alike come from different tables or passages of the source.

How the values were obtained:
[1] = biological target: HDAC1 enzyme (recombinant GST-HDAC1) (Homo sapiens (Human), UniProt Q13547); test: In vitro HDAC assay (BIOMOL fluorescent-based HDAC activity assay), HDAC1; format: biochemical
Protocol: (§1) The assay has been carried out in 96 well format and the BIOMOL fluorescent-based HDAC activity assay has been applied. […] Flur de lys Developer was added and the reaction was incubated for 10 min. Briefly, deacetylation of the substrate sensitizes it to the developer, which then generates a fluorophore (symbol). The fluorophore is excited with 360 nm light and the emitted light (460 nm) is detected on a fluorometric plate reader (Tecan Ultra Microplate detection system, Tecan Group Ltd.).
(§2) The analytical software, Prism 3.0 has been used to generate IC50 from a series of data.

[2] = biological target: HDAC8 enzyme (recombinant GST-HDAC8) (Homo sapiens (Human), UniProt Q9BY41); test: In vitro HDAC assay (BIOMOL fluorescent-based HDAC activity assay), HDAC8; format: biochemical
Chain of HDAC8 enzyme (recombinant GST-HDAC8) (Q9BY41 whole entry): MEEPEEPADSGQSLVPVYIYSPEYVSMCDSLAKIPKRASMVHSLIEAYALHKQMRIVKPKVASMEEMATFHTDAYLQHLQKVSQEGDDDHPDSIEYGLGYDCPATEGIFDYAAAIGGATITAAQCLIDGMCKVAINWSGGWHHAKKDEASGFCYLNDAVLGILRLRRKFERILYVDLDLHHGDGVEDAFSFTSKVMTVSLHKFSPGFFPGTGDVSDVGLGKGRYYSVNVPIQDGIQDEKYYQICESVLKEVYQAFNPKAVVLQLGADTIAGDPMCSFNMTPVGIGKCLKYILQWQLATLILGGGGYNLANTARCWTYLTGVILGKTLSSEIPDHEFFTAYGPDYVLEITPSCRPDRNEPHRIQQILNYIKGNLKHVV
Protocol: as §1, §2

[3] = read-out: HDAC1 Enzyme Activity IC50
[4] = read-out: HDAC8 Enzyme Activity IC50
[5] = Free base, read-out: IC50 (HDAC1)
[6] = Free base, read-out: IC50 (HDAC8)

Chain of HDAC1 enzyme (recombinant GST-HDAC1) (Q13547 whole entry): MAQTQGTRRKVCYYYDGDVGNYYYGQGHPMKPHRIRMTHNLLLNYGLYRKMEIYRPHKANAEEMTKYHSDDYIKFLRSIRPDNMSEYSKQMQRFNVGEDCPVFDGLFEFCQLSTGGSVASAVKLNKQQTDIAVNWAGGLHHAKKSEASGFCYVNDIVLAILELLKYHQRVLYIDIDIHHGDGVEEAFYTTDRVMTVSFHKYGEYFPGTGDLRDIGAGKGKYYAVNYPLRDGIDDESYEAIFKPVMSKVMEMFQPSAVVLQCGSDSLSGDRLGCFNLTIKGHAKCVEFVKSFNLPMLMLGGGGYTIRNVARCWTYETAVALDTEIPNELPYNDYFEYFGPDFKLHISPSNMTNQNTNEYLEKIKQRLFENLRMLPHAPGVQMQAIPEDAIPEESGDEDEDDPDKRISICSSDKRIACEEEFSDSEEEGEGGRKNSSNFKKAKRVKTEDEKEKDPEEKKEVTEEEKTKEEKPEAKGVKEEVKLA

Structure (SMILES) | IC50 [1, 3] [nM] | IC50 [2, 4] [nM] | further results
CC(Cc1nc2cc(/C=C/C(=O)NO)ccc2n1CCCO)c1ccccc1 (centres unmarked) [Compound 1, N-Hydroxy-3-[1-(3-hydroxy-propyl)-2-(2-phenyl-propyl)-1H-benzimidazol-5-yl]-acrylamide] | 51 | 119 | 
COc1cc(Cn2c(CCc3ccccc3)nc3cc(/C=C/C(=O)NO)ccc32)cc(OC)c1OC [Compound 2, N-Hydroxy-3-[1-(3,4,5-trimethoxybenzyl)-2-(2-phenyl-ethyl)-1H-benzimidazol-5-yl]-acrylamide] | 26 | 355 | IC50 [1, 5]: 43 nM; IC50 ([1]; Salt of CF3COOH, read-out: IC50 (HDAC1)): 49 nM; IC50 [2, 6]: 267 nM
COc1cc(-c2nc3cc(/C=C/C(=O)NO)ccc3n2CCCO)ccc1OCc1ccccc1 [Compound 4, N-Hydroxy-3-[2-(4-benzyloxy-3-methoxy-phenyl)-1-(3-hydroxy-propyl)-1H-benzimidazole-5-yl]-acrylamide] | 1340 | 790 | 
COc1ccc(-c2nc3cc(/C=C/C(=O)NO)ccc3n2CCO)cc1 [Compound 5, N-Hydroxy-3-[1-(2-hydroxy-ethyl)-2-(4-methoxy-phenyl)-1H-benzimidazole-5-yl]-acrylamide] | 4320 | 401 | 
COc1cc(-c2nc3cc(/C=C/C(=O)NO)ccc3n2CC(O)CO)ccc1OCc1ccccc1 (centres unmarked) [Compound 7, N-Hydroxy-3-[2-(4-benzyloxy-3-methoxy-phenyl)-1-(2,3-hydroxy-propyl)-1H-benzimidazole-5-yl]-acrylamide] | 1520 | 336 | 
O=C(/C=C/c1ccc2c(c1)nc(CCc1ccccc1)n2CC(O)CO)NO (centres unmarked) [Compound 8] |  | 454 | 
O=C(/C=C/c1ccc2c(c1)nc(-c1ccccn1)n2CC(O)CO)NO (centres unmarked) [Compound 9, N-Hydroxy-3-[1-(2,3-hydroxy-propyl)-2-(2-pyridyl)-1H-benzimidazol-5-yl]-acrylamide] | 1340 | 344 | 
O=C(/C=C/c1ccc2c(c1)nc(-c1ccncc1)n2CCO)NO [Compound 10, N-Hydroxy-3-[1-(2-hydroxy-ethyl)-2-(4-pyridyl)-1H-benzimidazol-5-yl]-acrylamide] | 2660 | 883 | 
O=C(/C=C/c1ccc2c(c1)nc(-c1ccncc1)n2CCCO)NO [Compound 11, N-Hydroxy-3-[1-(3-hydroxy-propyl)-2-(4-pyridyl)-1H-benzimidazol-5-yl]-acrylamide] | 846 | 161 | 
O=C(/C=C/c1ccc2c(c1)nc(CCc1ccccc1)n2Cc1cccnc1)NO [Compound 12, N-Hydroxy-3-[1-(3-pyridylmethyl)-2-(2-phenyl-ethyl)-1H-benzimidazol-5-yl]-acrylamide] | 131 | 202 | 
O=C(/C=C/c1ccc2c(c1)nc(-c1ccccn1)n2CCCO)NO [Compound 13, N-Hydroxy-3-[1-(3-hydroxy-propyl)-2-(2-pyridyl)-1H-benzimidazol-5-yl]-acrylamide] |  | 141 | 
O=C(/C=C/c1ccc2c(c1)nc(CCc1ccccc1)n2CCCO)NO [Compound 14, N-Hydroxy-3-[1-(3-hydroxy-propyl)-2-phenethyl-1H-benzimidazol-5-yl]-acrylamide] | 171 | 251 | 
COCCCn1c(CCc2ccccc2)nc2cc(/C=C/C(=O)NO)ccc21 [Compound 15] |  | 313 | 
O=C(/C=C/c1ccc2c(c1)nc(CCc1ccccc1)n2Cc1ccccn1)NO [Compound 16, N-Hydroxy-3-(2-phenethyl-1-(pyridin-2-yl)methyl-1H-benzimidazol-5-yl)-acrylamide] | 194 | 366 | 
CN(C)CC(C)(C)Cn1c(CCc2ccccc2)nc2cc(/C=C/C(=O)NO)ccc21 [Compound 17, N-Hydroxy-3-[1-(3-Dimethylamino-2,2-dimethyl-propyl)-2-phenethyl-1H-benzimidazol-5-yl]-acrylamide] |  |  | IC50 [1, 5]: 29 nM; IC50 ([1]; Salt of HCl, read-out: IC50 (HDAC1)): 44 nM; IC50 ([1]; Salt of Methane sulfonic acid, read-out: IC50 (HDAC1)): 51 nM; IC50 [2, 6]: 353 nM
O=C(/C=C/c1ccc2c(c1)nc(CCc1ccccc1)n2CCc1ccccn1)NO [Compound 18] |  | 290 | 
O=C(/C=C/c1ccc2c(c1)nc(COCc1ccccc1)n2CCCO)NO [Compound 19] | 165 | 145 | 
CC(C)Cc1nc2cc(/C=C/C(=O)NO)ccc2n1CCc1ccccn1 [Compound 22] |  | 234 | 
O=C(/C=C/c1ccc2c(c1)nc(CCc1ccccc1)n2CCc1ccccc1)NO [Compound 26, N-Hydroxy-3-(1,2-Diphenethyl-1H-benzimidazol-5-yl]-acrylamide] | 876 |  | 
O=C(/C=C/c1ccc2c(c1)nc(COCc1ccccc1)n2CCc1cccnc1)NO [Compound 28] |  | 300 | 
CC(C)Cc1nc2cc(CCC(=O)NO)ccc2n1CCCO [Compound 29, N-Hydroxy-3-[1-(3-Hydroxy-propyl)-2-isobutyl-1H-benzimidazol-5-yl]-propionamide] |  | 34000 | 
CCCn1c(CCc2ccccc2)nc2cc(/C=C/C(=O)NO)ccc21 [Compound 36, N-Hydroxy-3-(2-phenethyl-1-propyl-1H-benzimidazol-5-yl}-acrylamide] | 227 |  | 

Structure (SMILES) | IC50 [1, 3] [nM] | IC50 [2, 4] [nM] | further results
CCCn1cnc2cc(/C=C/C(=O)NO)ccc21 [Compound 37, N-Hydroxy-3-(1-propyl-1H-benzimidazol-5-yl}-acrylamide] | 897 |  | 
CCn1cnc2cc(/C=C/C(=O)NO)ccc21 [Compound 39, N-Hydroxy-3-(1-Ethyl-1H-benzimidazol-5-yl)-acrylamide] | 1220 |  | 
O=C(NO)c1ccc2c(c1)nc(CCc1ccccc1)n2CCCO [Compound 40, 1-(3-Hydroxy-propyl)-2-phenethyl-1H-benzimidazol-5-carboxylic acid hydroxyamide] |  | 441 | 
CC(Cc1nc2cc(/C=C/C(=O)NO)ccc2n1CCc1cccnc1)c1ccccc1 (centres unmarked) [Compound 41] |  | 159 | 
Cn1cnc2cc(/C=C/C(=O)NO)ccc21 [Compound 49, N-Hydroxy-3-(1-methyl-1H-benzimidazol-5-yl)-acrylamide] | 1400 |  | 
O=C(/C=C/c1ccc2[nH]c(CCc3ccccc3)nc2c1)NO [Compound 50, N-Hydroxy-3-(2-phenethyl-1H-benzimidazol-5-yl)-acrylamide] | 173 |  | 
O=C(/C=C/c1ccc2[nH]cnc2c1)NO [Compound 51, N-Hydroxy-3-(1H-benzimidazol-5-yl)-acrylamide] | 896 |  | 
Cn1c(CCCc2ccccc2)nc2cc(/C=C/C(=O)NO)ccc21 [Compound 52, N-Hydroxy-3-[1-methyl-2-(3-phenyl-propyl)-1H-benzimidazol-5-yl]-acrylamide] | 160 |  | 
Cn1c(CNC(=O)Cc2ccccc2)nc2cc(/C=C/C(=O)NO)ccc21 [Compound 54] | 100 |  | 
CN(C)CCCCn1c(CCc2ccccc2)nc2cc(/C=C/C(=O)NO)ccc21 [Compound 57, N-Hydroxy-3-[1-(4-dimethylamino-butyl)-2-phenethyl-1H-benzimidazol-5-yl]-acrylamide] | 153 |  | 
Cn1c(CNCc2ccccc2)nc2cc(/C=C/C(=O)NO)ccc21 [Compound 60, N-Hydroxy-3-[2-(benzylamino-methyl)-1-methyl-1H-benzimidazol-5-yl]-acrylamide] | 116 |  | 
CN(C)CCCn1c(CCc2ccccc2)nc2cc(/C=C/C(=O)NO)ccc21 [Compound 63, N-Hydroxy-3-[1-(3-dimethylamino-propyl)-2-phenethyl-1H-benzimidazol-5-yl]-acrylamide] | 162 |  | 
CCn1c(CNCc2ccccc2)nc2cc(/C=C/C(=O)NO)ccc21 [Compound 64, N-Hydroxy-3-[2-(benzylamino-methyl)-ethyl-1H-benzimidazol-5-yl]-acrylamide] | 230 |  | 
CCn1c(CCNCc2ccccc2)nc2cc(/C=C/C(=O)NO)ccc21 [Compound 74, N-Hydroxy-3-[2-(2-benzylamino-ethyl)-1-ethyl-1H-benzimidazol-5-yl]-acrylamide] | 371 |  | 
O=C(/C=C/c1ccc2c(c1)nc(CCc1ccccc1)n2CCCN1CCCC1)NO [Compound 82, N-Hydroxy-3-[2-phenethyl-1-(3-pyrrolidin-1-yl-propyl)-1H-benzimidazol-5-yl]-acrylamide] | 304 |  | 
CN(C)CC(C)(C)Cn1c(CCc2cccnc2)nc2cc(/C=C/C(=O)NO)ccc21 [Compound 86, N-Hydroxy-3-[1-(3-Dimethylamino-2,2-dimethyl-propyl)-2-(2-pyridin-3-yl-ethyl)-1H-benzimidazol-5-yl]-acrylamide] | 400 |  | 
CN(C)CC(C)(C)Cn1c(SCc2ccccc2)nc2cc(/C=C/C(=O)NO)ccc21 [Compound 89, N-Hydroxy-3-[2-benzylsulfanyl-1-(3-dimethylamino-2-2,dimethyl-propyl)-1H-benzimidazol-5-yl]-acrylamide] | 116 |  | 
CN(C)CC(C)(C)Cn1c([S+]([O-])Cc2ccccc2)nc2cc(/C=C/C(=O)NO)ccc21 (centres unmarked) [Compound 91] | 30 |  | 
CCn1c(Cc2ccccc2)nc2cc(/C=C/C(=O)NO)ccc21 [Compound 92, N-Hydroxy-3-(2-benzyl-1-ethyl-1H-benzimidazol-5-yl)-acrylamide] | 168 |  | 
CCn1c(CCCc2c[nH]c3ccccc23)nc2cc(/C=C/C(=O)NO)ccc21 [Compound 93, N-Hydroxy-3-(1-ethyl-2-[3-(1H-indol-3-yl)-propyl]-1H-benzimidazol-5-yl)-acrylamide] | 65 |  | 
COc1cccc(CCc2nc3cc(/C=C/C(=O)NO)ccc3n2CC(C)(C)CN(C)C)c1 [Compound 94, N-Hydroxy-3-(1-(3-dimethylamino-2,2-dimethyl-propyl)-2-[2-(3-methoxy-phenyl)-ethyl]-1H-benzimidazol-5-yl)-acrylamide] | 52 |  | 
CCn1c(CCCOc2ccccc2)nc2cc(/C=C/C(=O)NO)ccc21 [Compound 96, N-Hydroxy-3-[1-ethyl-2-(3-phenoxy-propyl)-1H-benzimidazol-5-yl]-acrylamide] | 125 |  | 
